Source: ChEMBL document CHEMBL1201862, “PubChem BioAssay data set” (2004)
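Each compound was tested at five concentrations against cells in 96-well plates for 48 hours. The concentration for 50% growth inhibition is given as GI50.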 The source made the active and inactive calls. Cut-off read from the data, not from the text of the source: active = GI50 up to about 1.1 µM and inactive = higher.

How the values were obtained:
Assay in all cases: DTP human tumour cell line panel, 48 h
786-0 = system: 786-0
A498 = system: A498
A549 = system: A549
ACHN = system: ACHN
CAKI-1 = system: CAKI-1
CCRF-CEM = system: CCRF-CEM
COLO 205 = system: COLO 205
DLD-1 = system: DLD-1
DU-145 = system: DU-145
HCC 2998 = system: HCC 2998
HCT-116 = system: HCT-116
HCT-15 = system: HCT-15
HL-60 = system: HL-60
HOP-18 = system: HOP-18
HOP-92 = system: HOP-92
HT-29 = system: HT-29
IGROV-1 = system: IGROV-1
K562 = system: K562
KM-20L2 = system: KM-20L2
KM12 = system: KM12
LOX IMVI = system: LOX IMVI
LXFL 529 = system: LXFL 529
M14 = system: M14
M19-MEL = system: M19-MEL
MOLT-4 = system: MOLT-4
Malme-3M = system: Malme-3M
NCI-H226 = system: NCI-H226
NCI-H23 = system: NCI-H23
NCI-H460 = system: NCI-H460
NCI-H522 = system: NCI-H522
OVCAR-3 = system: OVCAR-3
OVCAR-4 = system: OVCAR-4
OVCAR-5 = system: OVCAR-5
OVCAR-8 = system: OVCAR-8
RPMI-8226 = system: RPMI-8226
RXF 393 = system: RXF 393
RXF 631 = system: RXF 631
SF-268 = system: SF-268
SF-295 = system: SF-295
SF-539 = system: SF-539
SK-MEL-28 = system: SK-MEL-28
SK-MEL-2 = system: SK-MEL-2
SK-MEL-5 = system: SK-MEL-5
SK-OV-3 = system: SK-OV-3
SN12C = system: SN12C
SNB-19 = system: SNB-19
SNB-75 = system: SNB-75
SR = system: SR
SW-620 = system: SW-620
TK-10 = system: TK-10
U-251 = system: U-251
UACC-257 = system: UACC-257
UACC-62 = system: UACC-62
UO-31 = system: UO-31
XF498 = system: XF498
DMS-114 = system: DMS-114
EKVX = system: EKVX
SNB-78 = system: SNB-78

CCOC(=O)C=C1CCC2(CC1)OCCO2
GI50 (786-0): > 100 µM (inactive) | GI50 (A498): > 100 µM (inactive) | GI50 (A549): > 100 µM (inactive) | GI50 (ACHN): > 100 µM (inactive) | GI50 (CAKI-1): > 100 µM (inactive) | GI50 (CCRF-CEM): > 100 µM (inactive) | GI50 (COLO 205): > 100 µM (inactive) | GI50 (DLD-1): > 100 µM (inactive) | GI50 (DU-145): > 100 µM (inactive) | GI50 (HCC 2998): > 100 µM (inactive) | GI50 (HCT-116): > 100 µM (inactive) | GI50 (HCT-15): > 100 µM | GI50 (HL-60): > 100 µM (inactive) | GI50 (HOP-18): > 100 µM (inactive) | GI50 (HOP-92): > 100 µM (inactive) | GI50 (HT-29): > 100 µM (inactive) | GI50 (IGROV-1): > 100 µM (inactive) | GI50 (K562): > 100 µM (inactive) | GI50 (KM-20L2): > 100 µM (inactive) | GI50 (KM12): > 100 µM (inactive) | GI50 (LOX IMVI): > 100 µM (inactive) | GI50 (LXFL 529): > 100 µM (inactive) | GI50 (M14): > 100 µM (inactive) | GI50 (M19-MEL): > 100 µM (inactive) | GI50 (MOLT-4): > 100 µM (inactive) | GI50 (Malme-3M): > 100 µM (inactive) | GI50 (NCI-H226): > 100 µM (inactive) | GI50 (NCI-H23): > 100 µM (inactive) | GI50 (NCI-H460): > 100 µM (inactive) | GI50 (NCI-H522): > 100 µM (inactive) | GI50 (OVCAR-3): > 100 µM (inactive) | GI50 (OVCAR-4): > 100 µM (inactive) | GI50 (OVCAR-5): > 100 µM (inactive) | GI50 (OVCAR-8): > 100 µM (inactive) | GI50 (RPMI-8226): > 100 µM (inactive) | GI50 (RXF 393): > 100 µM (inactive) | GI50 (RXF 631): > 100 µM (inactive) | GI50 (SF-268): > 100 µM (inactive) | GI50 (SF-295): > 100 µM (inactive) | GI50 (SF-539): > 100 µM (inactive) | GI50 (SK-MEL-28): > 100 µM (inactive) | GI50 (SK-MEL-2): > 100 µM (inactive) | GI50 (SK-MEL-5): > 100 µM (inactive) | GI50 (SK-OV-3): > 100 µM (inactive) | GI50 (SN12C): > 100 µM (inactive) | GI50 (SNB-19): > 100 µM (inactive) | GI50 (SNB-75): > 100 µM (inactive) | GI50 (SR): > 100 µM (inactive) | GI50 (SW-620): > 100 µM (inactive) | GI50 (TK-10): > 100 µM (inactive) | GI50 (U-251): > 100 µM (inactive) | GI50 (UACC-257): > 100 µM (inactive) | GI50 (UACC-62): > 100 µM (inactive) | GI50 (UO-31): > 100 µM (inactive) | GI50 (XF498): > 100 µM (inactive)

O=C1c2c(O)cc(O)cc2OC(c2ccc(O)cc2O)C1O (stereo not drawn)
GI50 (A549): 79.6 µM (inactive) | GI50 (CAKI-1): 59.3 µM (inactive) | GI50 (DLD-1): 50.9 µM (inactive) | GI50 (DMS-114): 32.5 µM (inactive) | GI50 (EKVX): 60.8 µM (inactive) | GI50 (HOP-18): 31.8 µM (inactive) | GI50 (KM-20L2): 54 µM (inactive) | GI50 (KM12): 60.4 µM (inactive) | GI50 (LXFL 529): 36.1 µM (inactive) | GI50 (M19-MEL): 29.9 µM (inactive) | GI50 (MOLT-4): 28.6 µM (inactive) | GI50 (NCI-H23): 57.5 µM (inactive) | GI50 (NCI-H460): 57.8 µM (inactive) | GI50 (RXF 631): 40.5 µM (inactive) | GI50 (SF-295): 56.4 µM (inactive) | GI50 (SNB-78): 42.1 µM (inactive) | GI50 (SR): 25.7 µM (inactive) | GI50 (TK-10): 57.4 µM (inactive)
